This note sets out measurements from ChEMBL document CHEMBL5523705, “High affinity and low PARP-trapping benzimidazole derivatives as a potential warhead for PARP1 degraders” (Eur J Med Chem, 2024).

The target of series [1] is Poly [ADP-ribose] polymerase 1 (Homo sapiens, UniProt P09874). In words: Inhibition of PARP1 (unknown origin) in presence of DNA and substrate by chemiluminescent assay.
Another series concerns MDA-MB-436. In words: Inhibition of cell proliferation in human MDA-MB-436 cells assessed as PARP trapping effect. The series is classed as functional, cell-based.
A further series relates to MCF7. In words: Inhibition of cell proliferation in human MCF7 cells. The series is classed as functional, cell-based.
A short description of series [2]: Inhibition of cell proliferation in HUVECs. The series is classed as toxicity, cell-based. Particulars: human, HUVEC cells.

Chain of Poly [ADP-ribose] polymerase 1 (P09874 whole entry): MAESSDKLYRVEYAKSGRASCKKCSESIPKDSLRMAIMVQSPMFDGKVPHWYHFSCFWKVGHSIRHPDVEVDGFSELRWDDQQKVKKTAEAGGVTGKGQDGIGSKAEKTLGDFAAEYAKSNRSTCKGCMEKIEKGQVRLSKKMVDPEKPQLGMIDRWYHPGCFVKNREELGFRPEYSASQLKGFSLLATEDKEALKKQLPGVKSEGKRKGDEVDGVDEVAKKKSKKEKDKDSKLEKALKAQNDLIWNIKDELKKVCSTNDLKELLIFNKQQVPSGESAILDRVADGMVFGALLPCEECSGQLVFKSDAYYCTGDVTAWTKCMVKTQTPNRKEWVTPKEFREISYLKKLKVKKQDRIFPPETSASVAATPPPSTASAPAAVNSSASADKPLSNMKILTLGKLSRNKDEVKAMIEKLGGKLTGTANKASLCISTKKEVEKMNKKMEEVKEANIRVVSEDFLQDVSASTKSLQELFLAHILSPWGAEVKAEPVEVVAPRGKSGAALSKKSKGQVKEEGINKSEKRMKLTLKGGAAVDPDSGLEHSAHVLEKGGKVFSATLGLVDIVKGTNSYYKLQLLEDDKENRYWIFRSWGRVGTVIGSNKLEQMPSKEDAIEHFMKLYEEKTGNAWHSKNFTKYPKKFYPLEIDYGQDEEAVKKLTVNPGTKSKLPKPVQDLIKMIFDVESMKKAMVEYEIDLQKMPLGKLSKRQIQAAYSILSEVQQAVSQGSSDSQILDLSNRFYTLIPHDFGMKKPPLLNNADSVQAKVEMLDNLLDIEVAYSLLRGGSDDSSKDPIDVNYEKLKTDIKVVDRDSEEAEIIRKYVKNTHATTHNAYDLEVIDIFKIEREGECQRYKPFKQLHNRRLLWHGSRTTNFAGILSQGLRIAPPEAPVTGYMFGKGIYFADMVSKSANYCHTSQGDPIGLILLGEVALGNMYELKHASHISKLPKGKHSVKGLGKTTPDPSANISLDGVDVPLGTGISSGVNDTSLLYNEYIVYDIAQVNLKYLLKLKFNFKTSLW

Turning to `NC(=O)c1cccc2[nH]c(-c3ccc(C(=O)N4CCN(C(=O)c5ccco5)CC4)cc3)nc12`, the IC50 was 0.0541 µM in series [1]; over 100 µM in the series on MDA-MB-436 (Homo sapiens, MDA-MB-436); over 100 µM in the series on MCF7 (Homo sapiens, MCF7); over 100 µM in series [2].
For `NC(=O)c1cccc2[nH]c(-c3ccc(C(=O)N4CCN(C(=O)c5csc(Br)n5)CC4)cc3)nc12`, the half-inhibitory concentration (IC50) in series [1] was 0.00462 µM; with MDA-MB-436 (Homo sapiens, MDA-MB-436) it was over 100 µM; with MCF7 (Homo sapiens, MCF7) it was over 100 µM; in series [2] it was over 100 µM.
Turning to `NC(=O)c1cccc2[nH]c(-c3ccc(C(=O)NC4CCN(c5ccc(Br)o5)C4)c(F)c3)nc12` (stereo unspecified), the IC50 with MDA-MB-436 (Homo sapiens, MDA-MB-436) is 16.4 µM; in the series with MCF7 (Homo sapiens, MCF7), over 100 µM; in series [2], over 100 µM.
Turning to `Cn1cncc1C(=O)N1CCN(C(=O)c2ccc(-c3nc4c(C(N)=O)cccc4[nH]3)cc2)CC1`, the IC50 in series [1] was 0.0846 µM; in the series on MDA-MB-436 (Homo sapiens, MDA-MB-436), over 100 µM; with MCF7 (Homo sapiens, MCF7) it was over 100 µM; in series [2] it was over 100 µM.
For `CC1CN(C(=O)c2ccc(-c3nc4c(C(N)=O)cccc4[nH]3)cc2F)CCN1C(=O)c1ccc(Cl)o1` (stereo unspecified), the IC50 is 0.00685 µM in series [1]; 21.8 µM in the series with MDA-MB-436 (Homo sapiens, MDA-MB-436); over 100 µM in the series with MCF7 (Homo sapiens, MCF7); 47.8 µM in series [2].
Regarding `Cn1cccc1C(=O)N1CCN(C(=O)c2ccc(-c3nc4c(C(N)=O)cccc4[nH]3)cc2)CC1`, the concentration for half-maximal inhibition (IC50) is 0.0456 µM in series [1]; over 100 µM in the series on MDA-MB-436 (Homo sapiens, MDA-MB-436); over 100 µM in the series on MCF7 (Homo sapiens, MCF7); over 100 µM in series [2].
For the compound `NC(=O)c1cccc2[nH]c(-c3ccc(C(=O)NC4CCN(c5ccco5)C4)c(F)c3)nc12` (stereo unspecified), the 50% inhibitory concentration (IC50) in series [1] is 0.009 µM; in the series on MDA-MB-436 (Homo sapiens, MDA-MB-436), 20.5 µM; with MCF7 (Homo sapiens, MCF7) it was over 100 µM; in series [2], 67.1 µM.
On to `CC1CN(C(=O)c2ccc(-c3nc4c(C(N)=O)cccc4[nH]3)cc2F)CCN1C(=O)c1ccc(Br)o1` (stereo unspecified), for which the IC50 with MDA-MB-436 (Homo sapiens, MDA-MB-436) was 14.9 µM; in the series on MCF7 (Homo sapiens, MCF7) it was over 100 µM; in series [2], 52.6 µM.
`Cc1ccoc1C(=O)N1CCN(C(=O)c2ccc(-c3nc4c(C(N)=O)cccc4[nH]3)cc2F)CC1C` (stereo unspecified): the half-inhibitory concentration (IC50) in series [1] was 0.00518 µM; with MDA-MB-436 (Homo sapiens, MDA-MB-436) it was 9.09 µM; with MCF7 (Homo sapiens, MCF7), over 100 µM; in series [2], 85.3 µM.
For `Cc1ccc(C(=O)N2CCN(C(=O)c3ccc(-c4nc5c(C(N)=O)cccc5[nH]4)cc3F)CC2C)o1` (stereo unspecified) the same measures were 0.00572 µM, 17.3 µM, over 100 µM and over 100 µM.
For `NC(=O)c1cccc2[nH]c(-c3ccc(C(=O)N4CCN(C(=O)c5ccccn5)CC4)cc3)nc12`, the IC50 is 0.0506 µM in series [1]; over 100 µM in the series on MDA-MB-436 (Homo sapiens, MDA-MB-436); over 100 µM with MCF7 (Homo sapiens, MCF7); over 100 µM in series [2].
Regarding `NC(=O)c1cccc2[nH]c(-c3ccc(C(=O)NC4CCN(c5ccc(Cl)o5)C4)c(F)c3)nc12` (stereo unspecified), the half-inhibitory concentration (IC50) in series [1] was 0.00438 µM; in the series on MDA-MB-436 (Homo sapiens, MDA-MB-436), 7.6 µM; in the series with MCF7 (Homo sapiens, MCF7), over 100 µM; in series [2], over 100 µM.
Take `NC(=O)c1cccc2[nH]c(-c3ccc(C(=O)N4CCN(C(=O)c5ccco5)CC4)c(F)c3)nc12`: the half-maximal inhibitory concentration (IC50) is 0.0324 µM in series [1]; over 100 µM in the series on MDA-MB-436 (Homo sapiens, MDA-MB-436); over 100 µM with MCF7 (Homo sapiens, MCF7); over 100 µM in series [2].
`O=C(c1cc(Cc2n[nH]c(=O)c3ccccc23)ccc1F)N1CCN(C(=O)C2CC2)CC1` [OLAPARIB]: the half-inhibitory concentration (IC50) with MDA-MB-436 (Homo sapiens, MDA-MB-436) is 23.9 µM; in the series on MCF7 (Homo sapiens, MCF7) it was over 100 µM; in series [2] it was over 100 µM.
Take `C[C@]1(c2nc3c(C(N)=O)cccc3[nH]2)CCCN1` [VELIPARIB]: the IC50 (in the series with MDA-MB-436 (mda-mb-436); with MCF7 (mcf7); in series [2]) was over 100 µM throughout.
